Test results: patent US10159670B2, “Methods of diagnosing and treating motor neuron diseases and other cellular stress-related diseases” (priority 2012, dated 2018)

Legend:
Format in all cases: cell-based
NSC-34 cells = assay: Stress-induced change of pre-miRNA processing in NSC-34 cells (qPCR)
Procedure: (§1) (FIG. 7A) miRNA expression level analysis in the motor neuron cell line NSC-34, treated with 6.25 nM Thapsigargin for 24 hrs, relative to cells treated with carrier alone (DMSO). Shown are average and s.d. of qPCR analyses of 3 independent experiments. Pre-miRNAs (light grey, normalized to Gapdh) and miRNAs (dark grey, normalized to Snord68). (FIG. 7B) mRNA levels encoding for proteins involved in the canonical stress response, normalized to the expression of beta-actin. (FIG. 7C) miRNA expression level analysis in mouse embryonic motor neurons, treated with 5 nM Thapsigargin for 72 hrs, relative to cells treated with carrier alone (DMSO). Shown are average and s.d. of qPCR analyses of three independent experiments. Pre-miRNAs (light grey, normalized to Gapdh and beta actin) and miRNAs (dark grey, normalized to Snord70). (FIG. 7D) mRNA markers of the canonical stress response, normalized to the expression of beta-actin. miRNA expression level analysis in NSC-34 cells, treated with Paraquat (PQ) (1 mM, 12 hrs, FIG. 7E) and sodium arsenite (0.5 mM, 60 min, FIG. 7F). pre-miRNA normalized to beta-actin mRNA (FIGS. 7E-F) and miRNAs to 5S (FIG. 7E) or to U6 and 5S (FIG. 7F). (FIGS. 7G-I) miRNA expression level analysis in mouse embryonic Wild-type fibroblasts (light grey) or phospho-mutant eIF2a S51A cells (black) treated with Thapsigargin (5 nM, 72 hrs) relative to carrier alone. Pre-miRNA (FIG. 7G) and mature miRNA (FIG. 7H) levels normalized to Gapdh and Snord68, respectively. (FIG. 7I) ATF4, which is induced by phosphorylation of eIF2a, was not induced in phospho-mutant eIF2a S51A cells. Significance of p-values from ANOVA tests is indicated by *p<0.05; **p<0.01. (FIGS. 7J-K) Western-Blot analysis of lysates from untreated NSC-34 cells (control) or cells treated with sodium arsenite (0.5 mM, 60 min). Phospho-specific immunodetection of eIF2a S51 phosphorylation (peIF2a) and total eIF2a levels (FIG. 7J), Dicer and Ago2 levels (FIG. 7K). (FIG. 7L) miRNA expression level analysis in mouse embryonic fibroblasts treated with Puromycin (1 μg/ml, 24 hrs), relative to cells treated with carrier alone (water). Pre-miRNAs (light grey, normalized to Gapdh) and miRNAs (dark grey, normalized to Snord68).
RNA was extracted using Tri reagent (Molecular Research Center Inc.) or Qiazol with consecutive use of the miRNeasy Mini Kit (Qiagen). Pre-miRNA and miRNA reverse transcription was performed using miScript Kits No. I & II (Qiagen). Quantitative analysis of miRNA and pre-miRNA expression performed in more than 3 independent biological repeats and additionally in technical duplicates with StepOnePlus quantitative Real-Time PCR System and 2-sided ANOVA-test performed with DataAssist Software (Life technologies Inc.). Next-generation sequencing of mouse precursor miRNAs and mature miRNAs was performed on two independent experimental repeats, as described in Newman et al. [Newman et al. (2011) RNA 17(10): 1795-1803]. miRNAs were normalized to spiked-in controls and pre-miRNAs were normalized to Snord72 and Snord95.
Stress and cytoplasmic stress granules (SGs) emerge as major pathogenic mechanisms of ALS [Kim et al. (2014) Nat Genet 46(2): 152-160]. Stress pathways are thought to control miRNA activity [Etude and Hornstein, EMBO J. (2014) July 1; 33(13):1428-37], but the idea that cellular stress might broadly regulate miRNA biogenesis was not yet tested. This hypothesis was tested herein by measurement of the relative expression levels of mature miRNAs and their precursors, pre-miRNAs, which provides a proxy for the efficacy of Dicer complex activity. […] Two other chemicals were tested that drive oxidative stress, namely Paraquat (PQ, 12 hrs, 1 mM) and sodium arsenite (1 hr, 0.5 mM). […] Therefore, several different cellular stress pathways negatively regulate miRNA biogenesis.

[1] = system: mouse embryonic motor neurons; assay: Stress-induced change of miRNA biogenesis in primary mouse motor neurons; conditions: 5 nM, 72 hrs
Procedure: (FIG. 7A) miRNA expression level analysis in the motor neuron cell line NSC-34, treated with 6.25 nM Thapsigargin for 24 hrs, relative to cells treated with carrier alone (DMSO). Shown are average and s.d. of qPCR analyses of 3 independent experiments. Pre-miRNAs (light grey, normalized to Gapdh) and miRNAs (dark grey, normalized to Snord68). (FIG. 7B) mRNA levels encoding for proteins involved in the canonical stress response, normalized to the expression of beta-actin. (FIG. 7C) miRNA expression level analysis in mouse embryonic motor neurons, treated with 5 nM Thapsigargin for 72 hrs, relative to cells treated with carrier alone (DMSO). Shown are average and s.d. of qPCR analyses of three independent experiments. Pre-miRNAs (light grey, normalized to Gapdh and beta actin) and miRNAs (dark grey, normalized to Snord70). (FIG. 7D) mRNA markers of the canonical stress response, normalized to the expression of beta-actin. miRNA expression level analysis in NSC-34 cells, treated with Paraquat (PQ) (1 mM, 12 hrs, FIG. 7E) and sodium arsenite (0.5 mM, 60 min, FIG. 7F). pre-miRNA normalized to beta-actin mRNA (FIGS. 7E-F) and miRNAs to 5S (FIG. 7E) or to U6 and 5S (FIG. 7F). (FIGS. 7G-I) miRNA expression level analysis in mouse embryonic Wild-type fibroblasts (light grey) or phospho-mutant eIF2a S51A cells (black) treated with Thapsigargin (5 nM, 72 hrs) relative to carrier alone. […]

[2] = system: mouse embryonic fibroblasts (MEFs); assay: pre-miRNA and miRNA levels in mouse embryonic fibroblasts under stress
Procedure: as §1
(FIG. 9A) The ratio of pre-miRNA to mature miRNA levels in NSC-34 cells, transfected with plasmids as indicated and in cells treated for 72 hrs with carrier alone (water, black) or with cycloheximide (CHX, 0.02 μg/ml, gray). Data normalized to control plasmid transfection. Pre-miRNAs further normalized to Gapdh (for FUS R495X, TDP-43 A315T) or to beta-actin (SOD1 G93A) and miRNA levels normalized to Snord68. Average of three independent experiments except for pre-miRNAs in the study of FUS R495X (n=2). Targeted quantitative mass spectrometry analysis of changes in the binding of Ago2 or Dicer to a set of proteins interactors under stress (FIGS. 9B-E). Immunoprecipitated Ago2-Flag (FIG. 9B) or Dicer-Flag (FIG. 9C) from HEK 293 cells, cultured under basal conditions or treated with sodium arsenite (0.5 mM, 60 min) was subjected to targeted mass-spectrometry analysis. Data is averaged from two or three different peptide standards per protein and normalized to the levels of co-immunoprecipiated peptides from untreated cells. Statistically significant result in a student t-test, between arsenite and control treatment is denoted (*p<0.05). Targeted mass spectrometry of (FIG. 9D) Dicer cofactors or (FIG. 9E) SG components, immunoprecipitated with AGO-Flag in FUS R495X-expressing HEK 293 that were further treated for 72 hrs with carrier alone or Cycloheximide (0.02 μg/ml). (FIG. 9F) The ratio of pre-miRNA to mature miRNA levels in mouse embryonic fibroblasts, pretreated for 5 hrs with HSP90 inhibitors (17-AAG, 1 μM or Geldanamycin, 1 μM) and then incubated for 36 more hours with Thapsigargin (5 nM) in combinations with the respective HSP90 inhibitor. […]

SMILES: C/C=C(/C)C(=O)O[C@H]1C(C)=C2[C@H]([C@@H]1OC(=O)CCCCCCC)[C@@](C)(OC(C)=O)C[C@H](OC(=O)CCC)[C@@]1(O)[C@H]2OC(=O)[C@@]1(C)O [Thapsigargin]
- RNA markers of ER-stress: ASNS, ATF4, CHOP and GRP78 (NSC-34 cells; 6.25 nM, 24 hrs): up-regulation of RNA markers of ER-stress
- mature miRNAs levels (NSC-34 cells; 6.25 nM, 24 hrs): down-regulate mature miRNAs levels
- miRNA precursors levels (NSC-34 cells; 6.25 nM, 24 hrs): up-regulate miRNA precursors levels
- markers of ER-stress [1]: up-regulated markers of ER-stress
- miRNA biogenesis [1]: affected miRNA biogenesis
- ATF4 mRNA levels ([2]; eIF2a S51A MEFs, 5 nM, 72 hrs): failed to upregulate ATF4 mRNA levels
- Dicer inhibition (pre-miRNA and mature miRNA levels) ([2]; eIF2a S51A MEFs, 5 nM, 72 hrs): partial recovery from Thapsigargin-induced Dicer inhibition
- mature miRNA species ([2]; wild-type MEFs, 5 nM, 72 hrs): relative depletion of the corresponding mature miRNA species
- pre-miRNAs ([2]; wild-type MEFs, 5 nM, 72 hrs): accumulation of pre-miRNAs

SMILES: C[n+]1ccc(-c2cc[n+](C)cc2)cc1 [Paraquat]
- mature miRNAs (NSC-34 cells; PQ, 12 hrs, 1 mM): down-regulation of mature miRNAs
- pre-miRNA levels (NSC-34 cells; PQ, 12 hrs, 1 mM): up-regulation of pre-miRNA levels

SMILES: COc1ccc(C[C@H](N)C(=O)N[C@H]2[C@@H](O)[C@H](n3cnc4c(N(C)C)ncnc43)O[C@@H]2CO)cc1 [Puromycin]
- efficacy of pre-miRNA biogenesis ([2]; 1 μg/ml, 24 hrs): decreased the efficacy of pre-miRNA biogenesis

SMILES: C=CCNC1=C2C[C@@H](C)C[C@H](OC)[C@H](O)[C@@H](C)/C=C(\C)[C@H](OC(N)=O)[C@@H](OC)/C=C\C=C(/C)C(=O)NC(=CC1=O)C2=O [17-AAG]
- Thapsigargin-induced inhibition of miRNA biogenesis (ratio of pre-miRNA to mature miRNA) ([2]; HSP90 inhibitor 1 μM, 5 hrs pretreatment, then 36 hrs with Thapsigargin 5 nM): aggravated Thapsigargin-induced inhibition of miRNA biogenesis
